We go through three compounds from patent publication US4526967A, “Benzoquinolizines and use as α2 -adrenoceptor antagonistics” (John Wyeth & Brother Limited, priority 1983, dated 1985).

Experiment [1] addresses T1, α1 -adrenoceptors (Rattus norvegicus, UniProt P43140).
T1 construct: isolated anococcygeus muscle of the rat; from tissue; host or cells: rat anococcygeus muscle (male, 250-360 g)
T1 sequence (P43140 1-466): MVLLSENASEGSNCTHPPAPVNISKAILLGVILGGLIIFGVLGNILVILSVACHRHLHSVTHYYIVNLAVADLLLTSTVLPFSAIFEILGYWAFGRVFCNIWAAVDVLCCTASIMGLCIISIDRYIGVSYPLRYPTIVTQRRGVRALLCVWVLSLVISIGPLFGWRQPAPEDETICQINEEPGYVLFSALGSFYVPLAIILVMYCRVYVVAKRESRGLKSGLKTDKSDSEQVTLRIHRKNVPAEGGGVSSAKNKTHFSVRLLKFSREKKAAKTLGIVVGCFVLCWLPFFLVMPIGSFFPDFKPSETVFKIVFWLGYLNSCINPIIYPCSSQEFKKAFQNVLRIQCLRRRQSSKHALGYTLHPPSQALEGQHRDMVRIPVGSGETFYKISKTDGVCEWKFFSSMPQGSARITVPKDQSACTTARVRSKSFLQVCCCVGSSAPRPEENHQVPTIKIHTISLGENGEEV
Nature of the experiment: α1 antagonistic activity on the isolated anococcygeus muscle of the rat (antagonism of phenylephrine or methoxamine). The following applies: agonist phenylephrine or methoxamine, Arunlakshana & Schild, read-out: pA2 values for α1 antagonistic activity (converted). From the text: The compounds of the invention generally antagonise the α2 -adrenoceptors to a much greater extent than the α1 -adrenoceptors. The α1 antagonistic activity can be evaluated by a number of different methods. One method involves assessing the activity on the isolated anococcygeus muscle of the rat. The method is based on that of Gillespie, Br.J.Pharmac., 1972, 45, 404-416. In the procedure male rats (250-360 g) are killed by a blow on the head and bled. The two anococcygeus muscles are removed from their position in the midline of the pelvic cavity, where they arise from the upper coccygeal vertebrae. The muscles are suspended in 5 ml organ baths in Krebs solution containing […] ascorbic acid, to prevent drug oxidation. The tissues are gassed with a 95% oxygen, 5% CO2 mixture and maintained at 37°. Longitudinal muscle contractions are recorded using isotonic transducers. Cumulative dose response curves are then obtained to phenylephrine or in some cases methoxamine, both agents being […] alpha adrenoceptor agonists. The concentration range of phenylephrine or methoxamine used is 0.02 to 0.8 μg.ml^-1. The agonist is then washed from the bath and the test drug added to the bathing medium at a concentration of 10^-6 M. After 30 min equilibration with the test drug a further agonist dose response curve is obtained. The washing, equilibration and agonists dosing procedures are then repeated using 10^-5 M and 10^-4 M solutions of the test drug. Estimates of the pA2 value for the test drug as an antagonist of phenylephrine or methoxamine were made from the agonist dose-ratios using the method of Arunlakshana & Schild, Br. J.Pharmac.Chemother., 1959, 14, 48-58.

Experiment [2] has as its target T2, α2 -adrenoceptor (Rattus norvegicus, UniProt P22909).
T2 construct: from tissue; host or cells: rat vas deferens (desheathed, field stimulated)
T2 sequence (P22909 1-465): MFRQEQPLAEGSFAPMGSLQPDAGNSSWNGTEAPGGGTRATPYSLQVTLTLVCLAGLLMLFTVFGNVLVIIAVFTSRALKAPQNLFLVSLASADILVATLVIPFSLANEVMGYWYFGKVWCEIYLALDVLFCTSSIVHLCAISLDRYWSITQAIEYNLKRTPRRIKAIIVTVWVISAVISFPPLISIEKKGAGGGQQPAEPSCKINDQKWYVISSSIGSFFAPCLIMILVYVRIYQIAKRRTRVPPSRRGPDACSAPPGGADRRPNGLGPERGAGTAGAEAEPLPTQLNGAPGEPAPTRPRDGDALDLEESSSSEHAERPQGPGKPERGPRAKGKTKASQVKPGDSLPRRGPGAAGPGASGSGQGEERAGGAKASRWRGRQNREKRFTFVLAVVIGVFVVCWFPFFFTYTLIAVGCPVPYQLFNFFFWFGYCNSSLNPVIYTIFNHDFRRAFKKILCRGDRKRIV
In words: α2-adrenoceptor antagonistic activity on the rat field stimulated vas deferens preparation (antagonism of clonidine). Conditions: for α2 /α1 selectivity: antilog of (α2 pA2 -α1 pA2); for Kb: rat field stimulated vas deferens, agonist clonidine, Schild plot (Arunlakshana & Schild), read-out: pA2 for α2 -adrenoceptor antagonistic activity (converted). The method, then: The compounds of the invention are tested for α2 -adrenoceptor antagonistic activity on the rat field stimulated vas deferens preparation using a modification of the metod of Drew, Eur. J. Pharmac., 1977, 42, 123-130. The procedure is described below.
Desheathed vasa deferentia from sexually mature rats were suspended in a 6 ml organ bath in Krebs solution at 37° and bubbled with 5% CO2 in oxygen. Platinum ring electrodes were positioned above and below the tissue for field stimulation, the stimulus parameters being 0.1 Hz 1 ms pulse width at supramaximal voltage. Twitch responses were recorded isotonically with a 0.5 g loading. Clonidine hydrochloride was used as the α-adrenoceptor agonist and cumulative concentration-response curves were constructed for the inhibition of twitch obtained with clonidine in the range 0.125 to 4 ng ml^-1. After washing out clonidine, the twitch response quickly recovered and an antagonist was then introduced into the Krebs reservoir. Clonidine concentration-response curves were repeated 90 min after introduction of the antagonist. The concentration of clonidine producing 50% inhibition of twitch before and after introduction of antagonist were obtained and the dose-ratio for clonidine was calculated. Various concentrations of the antagonists were used.
Chemother., 1959, 14, 48-58 and the values of pA2 and slope were calculated.

For the compound `CS(=O)(=O)NCCN([C@H]1CCN2CCc3ccccc3[C@H]2C1)S(C)(=O)=O` (relative stereo) [Example 2, N-[(2β,11bα)-1,3,4,6,7,11b-Hexahydro-2H-benzo[a]quinolizin-2-yl]-N-(2-methanesulphonamidoethyl)methanesulphonamide], the Kb in experiment [1] was 4790 nM. Moreover, in experiment [2], the “α2 /α1 selectivity” value is on record as 407 and the Kb was 11.7 nM.

For the compound `CCCS(=O)(=O)N(CCNS(C)(=O)=O)[C@H]1CCN2CCc3ccccc3[C@H]2C1` (relative stereo) [Example 12, N-((2β,11bα)-1,3,4,6,7,11b-Hexahydro-2H-benzo[a]quinolizine-2-yl)-N-(2-methanesulphonamidoethyl)-n-propanesulphonamide], the Kb in experiment [1] was 1580 nM. Besides, in experiment [2], the “α2 /α1 selectivity” value was 309 and the Kb is 5.13 nM.

In the case of `CS(=O)(=O)NCCN([C@H]1CCN2CCc3ccccc3[C@H]2C1)S(=O)(=O)c1ccccc1` (relative stereo) [Example 13, N-((2β,11bα)-1,3,4,6,7,11b-Hexahydro-2H-benzo[a]quinolizin-2-yl)-N-(2-methanesulphonamidoethyl)benzenesulphonamide], the Kb in experiment [1] is 631 nM. Besides, in experiment [2], the “α2 /α1 selectivity” value came out at 83 and the Kb is 7.59 nM.
